pIC50: −log10 of the molar value.
How the values were obtained:
Cholinesterase = Cholinesterase (Homo sapiens, UniProt P06276); experiment: Butyrylcholinesterase Assay; conditions: pH 7.7
Protocol: The butyrylcholinesterase (BChE) inhibition activity was determined according to the Ellman's method with minor modifications. Total volume of the reaction mixture was 100 µL containing 60 µL, Na2HPO4 buffer, 50 mM and pH 7.7. Ten µL test compound 0.5 mM well-1, followed by the addition of 10 µL (0.5 unit well-1)BChE. […] The reaction was initiated by the addition of 10 µL of 0.5 mM well-1 substrate (butyrylthiocholine bromide) followed by the addition of 10 µL DTNB, 0.5 mM well-1. […] Synergy HT (BioTek, USA) 96-well plate reader was used in all experiments. All experiments were carried out with their respective controls in triplicate.

Acetylcholinesterase = Acetylcholinesterase (Homo sapiens, UniProt P22303); experiment: Acetylcholinesterase Assay; conditions: pH 7.7
Sequence of Acetylcholinesterase (P22303 whole entry): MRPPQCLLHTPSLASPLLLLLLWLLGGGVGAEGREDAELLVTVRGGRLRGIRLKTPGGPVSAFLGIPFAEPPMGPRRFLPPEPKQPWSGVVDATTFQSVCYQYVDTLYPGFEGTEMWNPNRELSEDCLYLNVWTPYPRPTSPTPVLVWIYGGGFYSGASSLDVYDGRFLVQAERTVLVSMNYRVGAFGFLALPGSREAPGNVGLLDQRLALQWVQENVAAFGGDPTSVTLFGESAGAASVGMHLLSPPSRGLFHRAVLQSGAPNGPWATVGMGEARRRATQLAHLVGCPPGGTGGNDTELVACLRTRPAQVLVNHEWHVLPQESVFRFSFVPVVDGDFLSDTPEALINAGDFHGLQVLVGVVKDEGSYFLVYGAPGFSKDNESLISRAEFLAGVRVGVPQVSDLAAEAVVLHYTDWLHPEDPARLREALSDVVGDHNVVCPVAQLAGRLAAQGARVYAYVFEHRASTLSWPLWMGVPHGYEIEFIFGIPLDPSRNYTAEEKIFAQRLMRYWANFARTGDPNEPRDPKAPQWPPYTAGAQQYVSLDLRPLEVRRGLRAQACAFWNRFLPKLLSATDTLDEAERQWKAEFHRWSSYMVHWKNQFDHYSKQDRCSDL
Protocol: The AChE inhibition activity was determined according to the Ellman's method with slight modifications. Total volume of the reaction mixture was 100 µL. It contained 60 µL Na2HPO4 buffer with concentration of 50 mM and pH 7.7. Ten µL test compound (0.5 mM well-1) was added, followed by the addition of 10 µL (0.005 unit well-1) enzyme. The contents were mixed and preread at 405 nm. Then contents were pre-incubated for 10 min at 37 °C. The reaction was initiated by the addition of 10 µL of 0.5 mM well-1 substrate (acetylthiocholine iodide), followed by the addition of 10 µL DTNB (0.5 mM well-1). After 30 min of incubation at 37 °C, absorbance was measured at 405 nm. Synergy HT (BioTek, USA) 96-well plate reader was used in all experiments. All experiments were carried out with their respective controls in triplicate.

Sequence of Cholinesterase (P06276 whole entry): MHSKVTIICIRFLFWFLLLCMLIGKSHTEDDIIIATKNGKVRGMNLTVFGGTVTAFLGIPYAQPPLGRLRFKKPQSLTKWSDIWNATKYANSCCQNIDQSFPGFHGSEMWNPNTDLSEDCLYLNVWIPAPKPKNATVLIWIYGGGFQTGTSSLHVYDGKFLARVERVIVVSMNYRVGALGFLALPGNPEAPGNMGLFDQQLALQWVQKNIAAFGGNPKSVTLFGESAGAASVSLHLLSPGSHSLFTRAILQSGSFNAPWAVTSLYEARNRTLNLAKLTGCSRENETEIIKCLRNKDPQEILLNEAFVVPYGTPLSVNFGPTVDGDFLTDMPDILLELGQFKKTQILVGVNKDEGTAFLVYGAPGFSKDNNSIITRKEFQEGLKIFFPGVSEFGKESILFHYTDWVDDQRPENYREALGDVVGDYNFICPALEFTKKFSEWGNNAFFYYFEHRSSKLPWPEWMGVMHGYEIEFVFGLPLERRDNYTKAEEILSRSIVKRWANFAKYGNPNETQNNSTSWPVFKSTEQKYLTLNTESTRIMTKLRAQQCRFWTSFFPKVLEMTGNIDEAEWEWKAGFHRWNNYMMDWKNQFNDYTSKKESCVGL

Row | Structure (SMILES) | pIC50 (Cholinesterase) | pIC50 (Acetylcholinesterase)
1 | CCCCCCCCCCCCCCCCN(c1ccc(-c2ccc(N(CCCCCCCCCCCCCCCC)S(=O)(=O)c3ccccc3)cc2)cc1)S(=O)(=O)c1ccccc1 [N,N’-(biphenyl-4,4’-diyl)bis(N-hexadecylbenzenesulfonamide) (3g)] | 5.11 | 5.33
2 | O=S(=O)(Nc1ccc(-c2ccc(NS(=O)(=O)c3ccccc3)cc2)cc1)c1ccccc1 [N,N'-(biphenyl-4,4'-diyl)dibenzenesulfonamide (2a)] | 3.69 | 4.37
3 | CCCCCCN(c1ccc(-c2ccc(N(CCCCCC)S(=O)(=O)c3ccccc3)c(C)c2)cc1C)S(=O)(=O)c1ccccc1 [N,N'-(3,3'-dimethylbiphenyl-4,4'-diyl)bis(N-hexylbenzenesulfonamide) (3m)] |  | 4.30
4 | O=S(=O)(c1ccccc1)N(Cc1ccccc1)c1ccc(-c2ccc(N(Cc3ccccc3)S(=O)(=O)c3ccccc3)cc2)cc1 [N,N'-(biphenyl-4,4'-diyl)bis(N-benzylbenzenesulfonamide) (3h)] | 4.45 | 4.21
5 | CCCCCN(c1ccc(-c2ccc(N(CCCCC)S(=O)(=O)c3ccccc3)cc2)cc1)S(=O)(=O)c1ccccc1 [N,N'-(biphenyl-4,4'-diyl)bis(N-pentylbenzenesulfonamide) (3d)] |  | 4.10
6 | CCCCCCN(c1ccc(-c2ccc(N(CCCCCC)S(=O)(=O)c3ccccc3)cc2)cc1)S(=O)(=O)c1ccccc1 [N,N'-(biphenyl-4,4'-diyl)bis(N-hexylbenzenesulfonamide) (3e)] |  | 4.10
7 | CCCCCCCN(c1ccc(-c2ccc(N(CCCCCCC)S(=O)(=O)c3ccccc3)cc2)cc1)S(=O)(=O)c1ccccc1 [N,N'-(biphenyl-4,4'-diyl)bis(N-heptylbenzenesulfonamide) (3f)] |  | 4.23
8 | Cc1cc(-c2ccc(NS(=O)(=O)c3ccccc3)c(C)c2)ccc1NS(=O)(=O)c1ccccc1 [N,N'-(3,3'-dimethylbiphenyl-4,4'-diyl)dibenzenesulfonamide (2b)] |  | 3.91
9 | CC(C)N(c1ccc(-c2ccc(N(C(C)C)S(=O)(=O)c3ccccc3)cc2)cc1)S(=O)(=O)c1ccccc1 [N,N'-(biphenyl-4,4'-diyl)bis(N-isopropylbenzenesulfonamide) (3b)] |  | 4.14
10 | CCCCCCCN(c1ccc(-c2ccc(N(CCCCCCC)S(=O)(=O)c3ccccc3)c(C)c2)cc1C)S(=O)(=O)c1ccccc1 [N,N'-(3,3'-dimethylbiphenyl-4,4'-diyl)bis(N-heptylbenzenesulfonamide) (3n)] | 4.31 | 4.36
11 | Cc1cc(-c2ccc(N(C(C)C)S(=O)(=O)c3ccccc3)c(C)c2)ccc1N(C(C)C)S(=O)(=O)c1ccccc1 [N,N'-(3,3'-dimethylbiphenyl-4,4'-diyl)bis(N-isopropylbenzenesulfonamide) (3j)] |  | 3.99
12 | CC(=O)N(c1ccc(-c2ccc(N(C(C)=O)S(=O)(=O)c3ccccc3)c(C)c2)cc1C)S(=O)(=O)c1ccccc1 [N,N'-(3,3'-dimethylbiphenyl-4,4'-diyl)bis(N-(phenylsulfonyl)acetamide) (3i)] |  | 4.02
13 | Cc1cc(-c2ccc(N(Cc3ccccc3)S(=O)(=O)c3ccccc3)c(C)c2)ccc1N(Cc1ccccc1)S(=O)(=O)c1ccccc1 [N,N'-(3,3'-dimethylbiphenyl-4,4'-diyl)bis(N-benzylbenzenesulfonamide) (3p)] | 4.50 | 5.64
14 | CCCCCCCCCCCCCCCCN(c1ccc(-c2ccc(N(CCCCCCCCCCCCCCCC)S(=O)(=O)c3ccccc3)c(C)c2)cc1C)S(=O)(=O)c1ccccc1 [N,N'-(3,3'-dimethylbiphenyl-4,4'-diyl)bis(N-hexadecylbenzenesulfonamide) (3o)] | 4.61 | 5.61
15 | CCCCN(c1ccc(-c2ccc(N(CCCC)S(=O)(=O)c3ccccc3)c(C)c2)cc1C)S(=O)(=O)c1ccccc1 [N,N'-(3,3'-dimethylbiphenyl-4,4'-diyl)bis(N-butylbenzenesulfonamide) (3k)] | 4.69 | 5.43
16 | CC(=O)N(c1ccc(-c2ccc(N(C(C)=O)S(=O)(=O)c3ccccc3)cc2)cc1)S(=O)(=O)c1ccccc1 [N,N'-(biphenyl-4,4'-diyl)bis(N-(phenylsulfonyl)acetamide) (3a)] | 3.81 | 3.99
17 | CCCCCN(c1ccc(-c2ccc(N(CCCCC)S(=O)(=O)c3ccccc3)c(C)c2)cc1C)S(=O)(=O)c1ccccc1 [N,N'-(3,3'-dimethylbiphenyl-4,4'-diyl)bis(N-pentylbenzenesulfonamide) (3l)] |  | 4.29
18 | CCCCN(c1ccc(-c2ccc(N(CCCC)S(=O)(=O)c3ccccc3)cc2)cc1)S(=O)(=O)c1ccccc1 [N,N'-(biphenyl-4,4'-diyl)bis(N-butylbenzenesulfonamide) (3c)] | 3.90 | 5.08

Reference: BindingDB's records for doi:10.1016/j.bioorg.2015.11.002 (Government College University, 2016)
